# Measured values published in patent US8022178B2, “Modified self-assembling peptides” (Massachusetts Institute of Technology, priority 2006, dated 2011).
# Columns and labels:
# [1] = test system: HUVEC (human umbilical vein endothelial cells); test: HUVEC cultured 2-dimensionally on hydrogels: cell attachment and morphology; type: cell-based
# Description: The effect of functional modified peptide matrix to HUVEC (human umbilical vein endothelial cells) was evaluated by culturing cells 2-dimensionally on the gel.
# (§1) The peptide solutions shown in Table 19 were loaded in the culture inserts (10 mm diameter, Millicell-CM, Millipore) and gels were formed using cell culture medium (EGM-2-MV, Camblex). Collagen-1 and Matrigel were used as control matrices. HUVEC (human umbilical vein endothelial cells) were plated at 8×10^4 cells on the inserts and cultured up to 7 Days.
# [2] = test system: HUVEC (human umbilical vein endothelial cells); test: HUVEC DNA amount in the well after three days culture; type: cell-based; conditions: compared to RAD, FIG. 25
# Description: as §1
# The amount of DNA in the well after three days culture was evaluated in selected hydrogels of Table 19. The DNA amount is proportional to the number of the cells.
# [3] = test system: HUVEC (human umbilical vein endothelial cells); test: Endothelial cell migration from beads to hydrogels; type: cell-based; conditions: Day 2; compared to RAD; FIGS. 26-27
# Description: Endothelial cell migration effect on the hydrogels was evaluated. The endothelial cell migration is important when the vessel has in-growth into the matrix. HUVEC (human umbilical vein endothelial cells) were seeded on Collagen coated Dextran beads (Cytodex3, microcarrier beads, Sigma), then transferred to different hydrogels which selected from Table 19.
# FIGS. 26A-26F show the fluorescence microscopy image of beads on the peptide matrix at Day 1 and Day 2 after placing the beads. […] The white bar represents 100 um. On the Day 1, most of the cells stayed on the beads. On the Day 2, the cells were well migrated from the beads to Collagen, PRGmx and KLTmx gel compared to RAD.
# The cells are counted in fluorescence microscopy image. The above observation were also confirmed in the graph.
# [4] = test system: chick Chorioallantoic Membrane; test: Chorioallantoic Membrane (CAM) assay of angiogenesis; type: in vivo, chicken; conditions: hydrogel placed Day 8, histology Day 12, FIG. 30
# Description: In vivo study of angiogenesis was performed using Chorioallantoic Membrane (CAM) assay. At Day 8 of fertilized chicken egg incubation, hydrogels of 10 mm diameter with 1 mm thickness were transferred to chick Chorioallantoic Membrane. The hydrogels were selected from Table 19 and gels were formed before the transfer. On Day 12, CAMs were collected for histology. The angiogenesis inside and below the hydrogel were evaluated by histological cross section.
substance,measurement,setting,value
"COL: Collagen-1 gel (0.25%); Collagen I gel from rat tail (BD Bioscience), control matrix",Cell attachment,[1]; HUVEC cultured on hydrogels,++++ (++++: near confluence(>70%))
same,cell attachment compared to RAD,"[1]; HUVEC on hydrogels for two days, confocal, FIGS. 24A-24M",higher cell attachment
same,DNA amount in the well,[2],statically higher
same,cell migration from the beads to the hydrogel,[3],well migrated
same,angiogenesis inside and below the hydrogel,[4],no angiogenesis both inside and below the hydrogel
